Test results as given in US11076595B2, “1-(n,n-disubstituted carbamoyl) 4-(substituted sulfonyl)triazolin-5-one derivative, 4-(n,n-disubstituted carbamoyl) 1-(substituted sulfonyl)triazolin-5-one derivative, and herbicide containing said derivative as active ingredient” (HOKKO CHEMICAL INDUSTRY CO., LTD., priority 2017, dated 2021).

What was measured:
Monochoria vaginalis [1] = test: Test Example 1: herbicidal effect test by soil treatment in paddy field; format: in vivo; conditions: 120 g/10a, paddy soil treatment just after sowing, 14 days after treatment
In short: (§1)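 Pre-emergence paddy soil treatment: diluted emulsifiable concentrate, 120 g active ingredient/10 are, applied dropwise into ~3 cm flood water immediately post-sowing. Two replicates; dry-weight-based suppression % vs untreated, day 14, glasshouse.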

Scirpus juncoides [2] = test: as above; format: in vivo; conditions: 120 g/10a, paddy soil treatment just after sowing, 14 days after treatment
In short: as §1

Lindernia pyxidaria [3] = test: as above; format: in vivo; conditions: 120 g/10a, paddy soil treatment just after sowing, 14 days after treatment
In short: as §1

Echinochloa crus-galli [4] = test: as above; format: in vivo; conditions: 120 g/10a, paddy soil treatment just after sowing, 14 days after treatment
In short: as §1

Monochoria vaginalis [5] = test: Test Example 2: herbicidal effect test by treatment during growing period in paddy field; format: in vivo; conditions: treatment 7 days after sowing, 120 g/10a, evaluated 14 days after treatment
In short: (§2)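 Paddy soil in flooded pots (~3 cm water), 30 seeds per species sown 0–1 cm deep, greenhouse. Emulsifiable concentrate diluted in water and dripped into the water 7 days after sowing at 120 g a.i. per 10 are. Suppression (%) from dry weight vs untreated, 14 days post-treatment, two replicates.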

Scirpus juncoides [6] = test: as above; format: in vivo; conditions: treatment 7 days after sowing, 120 g/10a, evaluated 14 days after treatment
In short: as §2

Lindernia pyxidaria [7] = test: as above; format: in vivo; conditions: treatment 7 days after sowing, 120 g/10a, evaluated 14 days after treatment
In short: as §2

Echinochloa crus-galli [8] = test: as above; format: in vivo; conditions: treatment 7 days after sowing, 120 g/10a, evaluated 14 days after treatment
In short: as §2

crabgrass [9] = test: Test Example 4: herbicidal effect test by foliage treatment in upland field; format: in vivo; conditions: upland field foliage treatment 7 days after sowing; 120 g/10a; evaluated 14 days after treatment
In short: (§3)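 In this upland pot test, each species is sown at 20 seeds per pot. Spraying follows one week later at a dose of 120 g active ingredient per 10 are. Weed suppression, calculated from average dry weights, is determined 14 days afterward.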

Echinochloa crus-galli [10] = test: as above; format: in vivo; conditions: upland field foliage treatment 7 days after sowing; 120 g/10a; evaluated 14 days after treatment
In short: as §3

Chenopodium album [11] = test: as above; format: in vivo; conditions: upland field foliage treatment 7 days after sowing; 120 g/10a; evaluated 14 days after treatment
In short: as §3

Amaranthus viridis [12] = test: as above; format: in vivo; conditions: upland field foliage treatment 7 days after sowing; 120 g/10a; evaluated 14 days after treatment
In short: as §3

crabgrass [13] = test: Test Example 3: herbicidal effect test by soil treatment in upland field; format: in vivo; conditions: upland field soil treatment 1 day after sowing; 120 g/10a; evaluated 14 days after treatment
In short: (§4)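 Pots of alluvial field soil sown with 20 seeds per weed species; one day later emulsifiable concentrate diluted in water and sprayed on soil surface at 100 L per 10 are, 120 g active ingredient per 10 are. Suppression rate (%) from dry weight versus untreated plots after 14 days, two replicates.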

Echinochloa crus-galli [14] = test: as above; format: in vivo; conditions: upland field soil treatment 1 day after sowing; 120 g/10a; evaluated 14 days after treatment
In short: as §4

Chenopodium album [15] = test: as above; format: in vivo; conditions: upland field soil treatment 1 day after sowing; 120 g/10a; evaluated 14 days after treatment
In short: as §4

Amaranthus viridis [16] = test: as above; format: in vivo; conditions: upland field soil treatment 1 day after sowing; 120 g/10a; evaluated 14 days after treatment
In short: as §4

SMILES | melting point [°C] | weed suppression rate, Monochoria vaginalis (Monochoria vaginalis [1]) [%] | weed suppression rate, Scirpus juncoides (Scirpus juncoides [2]) [%] | weed suppression rate, Lindemia pyxidaria (Lindernia pyxidaria [3]) [%] | weed suppression rate, Echinochloa crus-galli (Echinochloa crus-galli [4]) [%] | weed suppression rate, Monochoria vaginalis (Monochoria vaginalis [5]) [%] | weed suppression rate, Scirpus juncoides (Scirpus juncoides [6]) [%] | weed suppression rate, Lindemia pyxidaria (Lindernia pyxidaria [7]) [%] | weed suppression rate, Echinochloa crus-galli (Echinochloa crus-galli [8]) [%] | herbicidal effect (weed suppression rate), Crabgrass (crabgrass [9]) [%] | herbicidal effect (weed suppression rate), Echinochloa crus-galli (Echinochloa crus-galli [10]) [%] | herbicidal effect (weed suppression rate), Chenopodium album (Chenopodium album [11]) [%] | herbicidal effect (weed suppression rate), Amaranthus viridis (Amaranthus viridis [12]) [%] | herbicidal effect (weed suppression rate), Crabgrass (crabgrass [13]) [%] | herbicidal effect (weed suppression rate), Echinochloa crus-galli (Echinochloa crus-galli [14]) [%] | herbicidal effect (weed suppression rate), Chenopodium album (Chenopodium album [15]) [%] | herbicidal effect (weed suppression rate), Amaranthus viridis (Amaranthus viridis [16]) [%]
CCN(CC)C(=O)n1ncn(S(C)(=O)=O)c1=O [Compound 1-1] | 81.7 to 85.3 | – | – | – | – | – | – | – | – | – | – | – | – | – | – | – | –
CC(C)N(C(=O)n1ncn(S(=O)(=O)C(C)C)c1=O)c1ccccc1 [Compound 1-54] | 92 to 94 | 80 | 90 | 80 | 90 | 80 | 90 | 80 | 90 | 90 | 80 | 80 | 90 | – | – | – | –
CC(C)N(C(=O)n1ncn(S(=O)(=O)C2CC2)c1=O)c1ccc(F)cc1F [Compound 1-150, 4-cyclopropylsulfonyl-N-(2,4-difluorophenyl)-N-isopropyl-5-oxo-1,2,4-triazole-1-carboxamide] | 144 to 146 | 100 | 100 | 100 | 100 | 90 | 90 | 90 | 100 | 90 | 80 | 80 | 90 | 100 | 100 | 100 | 90
CC(C)N(C(=O)n1ncn(S(=O)(=O)C2CC2)c1=O)c1ccccc1 [Compound 1-168] | 102 to 104 | 80 | 90 | 80 | 90 | 80 | 90 | 80 | 90 | – | – | – | – | – | – | – | –
CCN(CC)C(=O)n1ncn(S(=O)(=O)Cc2ccccc2)c1=O [Compound 1-968] | 115.8 to 118.6 | – | – | – | – | – | – | – | – | – | – | – | – | – | – | – | –
Cc1ccc(N(C(=O)n2ncn(S(=O)(=O)N(C)C)c2=O)C(C)C)c(F)c1 [Compound 1-1117] | – | 80 | 90 | 80 | 90 | 80 | 90 | 80 | 90 | 90 | 80 | 80 | 90 | 90 | 80 | 80 | 90
